Active and inactive are the calls of the source.
Key:
[1] = molecular target: T1, Polyadenylate-binding protein 1 (Homo sapiens, UniProt P11940); test: PABP1 MLLE–PAM2 binding inhibitor potency, dose response, biochemical, fluorescence polarization, FITC-PAM2 peptide (AID 602259); format: functional; conditions: read-out: IC50_Mean
[2] = molecular target: T1, Polyadenylate-binding protein 1; test: PABP1 MLLE–PAM2 interaction inhibitors, dose response, miRNA deadenylation inhibitor project, biochemical, fluorescence polarization, Cy5-PAM2 peptide, secondary (AID 602260); format: functional; conditions: read-out: IC50_Mean
H9c2 = test: cells; format: functional, cell-based; conditions: Rattus norvegicus, H9c2, Myocardium;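 note: confirmatory concentration-response retest of ultra-high-throughput screening hits for modulation of myocardial damage; cell death induced by hydrogen peroxide oxidative stress; compound pretreatment for 60 min then peroxide exposure for 2 h; potency is for protecting the cells against peroxide damage rather than for killing them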
BJ [3] = test: cytotoxicity toward BJ-TERT-LT-ST fibroblasts, dose response, cell-based, RAS-independent, luminescence (AID 1935); format: functional; conditions: Homo sapiens;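 note: BJ fibroblasts immortalized with TERT plus LT and ST oncogenes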
BJ [4] = test: cells; format: functional, cell-based; conditions: Homo sapiens
[5] = cytotoxicity toward DRD oncogenic fibroblasts, dose response, cell-based, non-viral oncogenic, luminescence (AID 1934); format: functional; conditions: Homo sapiens
BJ [6] = test: cytotoxicity toward BJ-TERT fibroblasts, dose response, cell-based, RAS-independent, luminescence (AID 1933); format: functional; conditions: Homo sapiens
[7] = molecular target: FAD-linked sulfhydryl oxidase ALR (Homo sapiens, UniProt P55789); test: inhibitors of human ALR sulfhydryl oxidase, dose response, biochemical, H2O2 detection, luminescence, cherry-pick (AID 493248)
[8] = microbe, parasite or virus in culture; format: functional; conditions: Mycobacterium tuberculosis
[9] = molecular target: T2, Corticotropin-releasing factor receptor 2/Corticotropin-releasing factor-binding protein (Homo sapiens, UniProt P24387+Q13324); test: Dose Response confirmation of uHTS hits for small molecule antagonists of the CRF-binding protein and CRF-R2 receptor complex.; format: functional; conditions: read-out: IC50_Mean
T2 sequence (Q13324 whole entry): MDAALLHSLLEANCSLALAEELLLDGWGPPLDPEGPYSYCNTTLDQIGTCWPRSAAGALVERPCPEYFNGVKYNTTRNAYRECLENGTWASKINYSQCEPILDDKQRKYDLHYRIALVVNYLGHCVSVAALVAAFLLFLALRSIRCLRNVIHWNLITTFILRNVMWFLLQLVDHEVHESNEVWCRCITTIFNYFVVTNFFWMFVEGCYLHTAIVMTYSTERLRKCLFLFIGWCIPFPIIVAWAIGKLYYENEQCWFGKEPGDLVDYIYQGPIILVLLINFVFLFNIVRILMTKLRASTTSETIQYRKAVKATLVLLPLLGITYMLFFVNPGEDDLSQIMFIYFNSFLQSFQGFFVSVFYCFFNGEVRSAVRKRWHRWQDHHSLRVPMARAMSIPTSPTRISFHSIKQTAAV
T2 sequence (P24387 whole entry): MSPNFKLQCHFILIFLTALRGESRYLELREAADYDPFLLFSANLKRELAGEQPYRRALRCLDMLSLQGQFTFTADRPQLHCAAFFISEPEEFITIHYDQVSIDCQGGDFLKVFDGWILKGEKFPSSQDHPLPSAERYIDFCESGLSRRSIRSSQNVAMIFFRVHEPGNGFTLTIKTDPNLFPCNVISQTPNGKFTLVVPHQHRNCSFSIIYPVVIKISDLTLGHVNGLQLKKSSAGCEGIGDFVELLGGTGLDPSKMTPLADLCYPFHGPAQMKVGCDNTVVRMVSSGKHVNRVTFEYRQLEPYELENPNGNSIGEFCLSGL

[10] = molecular target: T2, Corticotropin-releasing factor receptor 2/Corticotropin-releasing factor-binding protein; test: activators of CRF receptor 2 with binding protein – uHTS hits, confirmation (AID 602473); format: functional; conditions: read-out: EC50_Mean
INS1 = test: beta cell apoptosis inhibitors, cytokine rescue, dose response, luminescence, retest (AID 449756); format: functional, cell-based; conditions: Rattus norvegicus;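 note: cell death triggered by IL-1 beta plus TNF-alpha plus IFN-gamma mixture; protective hits raise ATP signal compared with cytokine alone wells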
[11] = cytotoxicity toward NIH3T3 fibroblasts, dose response, counter-screen, cell-based, ATP luminescence, mouse fibroblasts (AID 2010); format: functional;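 note: cells exposed to compound for about 90 hours before reading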
[12] = inhibitors of intracellular T. cruzi replication, confirmation, NIH3T3 host cells, beta-gal luminescence (AID 2044); format: functional, cell-based;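 note: intracellular parasites grown in NIH/3T3 mouse fibroblasts as host cells; luminescent beta-galactosidase reporter signal from transgenic T. cruzi replicating inside host cells; inhibitors lower the luminescence signal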
[13] = molecular target: T3, High affinity choline transporter 1 (Homo sapiens, UniProt Q9GZV3); test: CHT inhibitors, dose response, cell-based, 5-point CRC, membrane potential dye (AID 504840); format: functional
T3 sequence (Q9GZV3 whole entry): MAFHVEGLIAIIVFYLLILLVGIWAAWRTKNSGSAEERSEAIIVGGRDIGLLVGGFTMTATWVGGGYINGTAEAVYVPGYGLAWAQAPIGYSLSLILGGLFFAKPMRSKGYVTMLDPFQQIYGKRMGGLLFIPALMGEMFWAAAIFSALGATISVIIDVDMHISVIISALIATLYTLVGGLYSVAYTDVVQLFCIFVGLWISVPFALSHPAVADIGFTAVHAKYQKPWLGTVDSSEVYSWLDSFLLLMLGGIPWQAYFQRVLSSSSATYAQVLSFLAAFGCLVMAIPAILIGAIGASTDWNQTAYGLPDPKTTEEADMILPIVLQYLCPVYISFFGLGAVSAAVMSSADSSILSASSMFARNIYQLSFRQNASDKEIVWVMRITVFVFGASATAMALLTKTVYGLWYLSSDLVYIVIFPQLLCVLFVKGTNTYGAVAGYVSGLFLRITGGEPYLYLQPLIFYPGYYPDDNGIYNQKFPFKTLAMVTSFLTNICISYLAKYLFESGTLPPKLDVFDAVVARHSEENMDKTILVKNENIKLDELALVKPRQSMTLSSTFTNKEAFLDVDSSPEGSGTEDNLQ

[14] = MC4R antagonists, dose response, counter-screen for LGR2 antagonist project, cell-based, plate reader, cherry pick (AID 743444); format: functional;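 note: transfected HEK 293 cells stimulated with alpha-MSH peptide; potency of inhibitors of the alpha-MSH evoked signal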
[15] = A549 cell cytotoxicity, dose response, cytotoxicity control, plate reader, cherry-pick, antagonist series (AID 743412); format: functional, cell-based
[16] = LGR2 antagonists, dose response, cell-based, HEK293, CRE-luciferase reporter, cherry pick, set 2 (AID 743343); format: functional;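 note: transfected cells were stimulated with diluted bursicon conditioned medium after compound addition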
[17] = molecular target: T4, Rac GTPase-activating protein 1 (Homo sapiens, UniProt Q9H0H5); test: MgcRacGAP GTPase-activating activity inhibitors, confirmation, biochemical, ADP Hunter fluorescence, primary and confirmatory (AID 624330); format: functional
T4 sequence (Q9H0H5 whole entry): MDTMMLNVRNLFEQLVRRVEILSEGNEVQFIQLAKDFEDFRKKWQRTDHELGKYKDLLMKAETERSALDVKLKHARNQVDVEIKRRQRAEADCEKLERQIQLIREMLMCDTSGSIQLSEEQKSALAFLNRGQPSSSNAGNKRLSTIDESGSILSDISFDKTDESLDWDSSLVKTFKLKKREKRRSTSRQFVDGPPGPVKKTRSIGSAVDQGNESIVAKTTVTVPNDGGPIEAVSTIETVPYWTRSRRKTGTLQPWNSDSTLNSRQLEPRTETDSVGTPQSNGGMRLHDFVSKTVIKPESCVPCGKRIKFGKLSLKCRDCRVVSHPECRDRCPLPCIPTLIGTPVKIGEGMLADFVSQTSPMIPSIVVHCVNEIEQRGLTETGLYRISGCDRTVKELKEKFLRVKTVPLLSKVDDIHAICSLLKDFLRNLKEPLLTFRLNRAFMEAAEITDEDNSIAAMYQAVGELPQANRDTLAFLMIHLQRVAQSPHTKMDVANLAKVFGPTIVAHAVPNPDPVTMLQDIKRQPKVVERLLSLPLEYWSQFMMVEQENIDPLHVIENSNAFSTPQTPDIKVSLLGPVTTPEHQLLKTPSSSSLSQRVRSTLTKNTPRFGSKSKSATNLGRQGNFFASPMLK

T1 sequence (P11940 whole entry): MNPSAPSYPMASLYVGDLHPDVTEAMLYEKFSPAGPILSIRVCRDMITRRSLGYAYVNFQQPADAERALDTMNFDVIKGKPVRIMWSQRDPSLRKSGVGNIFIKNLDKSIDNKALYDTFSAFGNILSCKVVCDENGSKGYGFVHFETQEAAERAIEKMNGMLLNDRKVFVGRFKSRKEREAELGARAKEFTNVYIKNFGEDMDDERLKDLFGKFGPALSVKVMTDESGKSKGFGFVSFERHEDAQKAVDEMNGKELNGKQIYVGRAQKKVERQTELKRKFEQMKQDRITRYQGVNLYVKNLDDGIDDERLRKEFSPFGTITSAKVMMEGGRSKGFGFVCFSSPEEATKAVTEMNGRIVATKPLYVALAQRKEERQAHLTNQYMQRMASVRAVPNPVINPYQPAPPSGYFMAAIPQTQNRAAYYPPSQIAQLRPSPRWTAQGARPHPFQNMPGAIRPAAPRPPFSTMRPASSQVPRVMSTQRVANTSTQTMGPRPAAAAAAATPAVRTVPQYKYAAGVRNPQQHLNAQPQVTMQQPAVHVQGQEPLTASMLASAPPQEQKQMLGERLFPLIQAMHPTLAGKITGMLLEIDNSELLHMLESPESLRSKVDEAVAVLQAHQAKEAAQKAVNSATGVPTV
Sequence of FAD-linked sulfhydryl oxidase ALR (P55789 whole entry): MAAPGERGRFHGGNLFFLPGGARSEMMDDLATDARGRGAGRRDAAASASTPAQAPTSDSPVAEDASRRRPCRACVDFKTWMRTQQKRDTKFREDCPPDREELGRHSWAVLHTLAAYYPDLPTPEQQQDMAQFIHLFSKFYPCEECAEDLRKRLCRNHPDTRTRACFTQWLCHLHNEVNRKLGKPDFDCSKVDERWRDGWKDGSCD

In the case of `CCO/C(O)=C1/Sc2cc(C)ccc2N=C1C`, the IC50 [1] is reported as > 66 µM (inactive) and the IC50 [2] is reported as > 66 µM (inactive).
In the case of `Cc1cccc(NC(=O)c2oc3ccc(S(=O)(=O)N4CCOCC4)cc3c2C)c1C`, the IC50 (H9c2) is reported as > 79 µM (inactive).
For `O=C1C=C(NNC(=O)c2cccnc2)CC(c2ccco2)C1` (configuration not stated), the IC50 [1] was > 66 µM (inactive) and the IC50 [2] was > 66 µM (inactive).
For `Cc1cc(C)c2c(NC(=O)CCl)nn(C)c2n1`, the EC50 (BJ [3]) was > 150 µM (inconclusive), the EC50 (BJ [4]) was > 150 µM (not active) and the EC50 [5] was 29.2 µM (active). The EC50 (BJ [6]) was 28.7 µM (active).
With `COc1ccc(OC)c(C2C(C#N)=C(N)Oc3cc(N)ccc32)c1` (configuration not stated) the AC50 [7] was 3.1 µM (active).
For `O=C(CCl)Nc1nccs1`, the CC50 [8] was 13.7 µM (active), the IC50 [9] was > 47.1 µM (inactive) and the EC50 [10] was > 53 µM (inactive).
For `Cc1cccc(NC(=O)c2[nH]cnc2C(=O)NCC(=O)OCc2ccccc2)c1`, the IC50 (H9c2) was > 79 µM (inactive).
With `CSCCCN=C(S)N1CCN(c2ccc(C(C)=O)cc2)CC1` the CC50 [8] was > 40 µM (active).
For `O=C(CCc1nc(O)c2ccccc2n1)N1CCN(c2ccccc2Cl)CC1`, the IC50 (H9c2) was > 79 µM (inactive).
With `CCOC(=O)COc1ccc2c3c(c(=O)oc2c1)CCCC3` the IC50 (H9c2) was 31.2 µM (inactive).
With `CCn1c(-c2ccc(N(C)C)cc2)nc2ccccc21` the AC50 (INS1) was 4.25 µM (active), the EC50 [11] was > 60 µM (not active) and the EC50 [12] was 1.67 µM (active). The AC50 [7] was 1.48 µM (active).
For `Cc1cc(C(F)(F)F)nc(SCC(=O)NC2=NC(=O)C(C)S2)n1` (configuration not stated), the IC50 [1] was > 66 µM (inactive) and the IC50 [2] was > 66 µM (inactive).
For `c1ccc2nc3[nH]cnc3nc2c1`, the IC50 [1] was > 66 µM (inactive) and the IC50 [2] was > 66 µM (inactive).
In the case of `CC(OC(=O)Cc1nnc(O)c2ccccc12)C(=O)Nc1ccc(F)cc1` (configuration not stated), the IC50 (H9c2) is reported as > 79 µM (inactive).
In the case of `Cc1ncsc1CCC(=O)N1CCCC(Nc2ccc(C(C)C)cc2)C1` (configuration not stated), the AC50 [7] is reported as 3.68 µM (active).
With `CC(C)c1ccc(NC2CCCN(C(=O)c3cc(C(C)C)nc(N)n3)C2)cc1` (configuration not stated) the AC50 [7] was 0.714 µM (active).
With `CC1(C(=O)N2CCC(CC3CC(c4ccc(Cl)cc4)=NO3)(C(=O)NCC3CCCCC3)CC2)CC1` (configuration not stated) the IC50 [13] was 6.92 µM (active).
With `CCCn1nc2cc(C(=O)NCc3ccc(C)cc3)ccc2c1OCC` the IC50 [13] was 8.18 µM (active).
With `CC1CCN(S(=O)(=O)c2nnc(NC(=O)c3cccc([N+](=O)[O-])c3)s2)CC1` the IC50 [13] was 11.5 µM (active).
With `CCOc1ccc(CCNC(=O)c2cc3c(C)nccc3nc2O)cc1OCC` the IC50 (H9c2) was > 79 µM (inactive).
In the case of `CC(Oc1ccccc1Cl)C(=O)Nc1ccc(S(=O)(=O)N2CCN(C)CC2)cc1` (configuration not stated), the IC50 [1] is reported as > 66 µM (inactive) and the IC50 [2] is reported as > 66 µM (inactive).
In the case of `COc1ccc(-c2ccc3c(c2)S(=O)(=O)c2cccc(C(=O)NC[C@@H]4CCCO4)c2C3=O)cc1OC`, the IC50 (H9c2) is reported as > 79 µM (inactive).
In the case of `CN(C)c1ccc(/C=N/NC(=O)c2ccccn2)cc1`, the AC50 [7] is reported as 35.5 µM (active).
For `Cc1cc(NS(=O)(=O)c2ccc(NC(=S)NC(=O)c3ccc(F)cc3)cc2)no1`, the IC50 [1] was > 66 µM (inactive) and the IC50 [2] was > 66 µM (inactive).
For `COc1ccccc1N/C=C/c1onc(C)c1[N+](=O)[O-]`, the AC50 [14] was 4.75 µM (active), the AC50 [15] was > 52 µM (inactive) and the AC50 [16] was 3.4 µM (active).
For `Cc1cc(N2CCCC2)ccc1NC(=O)CN1C(=O)NC2(CCCCC2)C1=O`, the IC50 [17] was 268 µM (active) and the AC50 [7] was 0.644 µM (active).
For `Cc1ccc(/C=C(\NC(=O)c2ccc(C)cc2)c2n[nH]c(S)n2)cc1`, the CC50 [8] was > 40 µM (active).
For `CCOC(=O)c1cccc(NC(=O)CCS(=O)(=O)c2cccc3nsnc23)c1`, the IC50 [13] was 14.8 µM (active).
For `Cc1ccc(N=C(S)C2=C(O)c3ccccc3N(C)S2(=O)=O)cc1`, the IC50 [1] was > 66 µM (inactive) and the IC50 [2] was > 66 µM (inactive).
With `O=C1CCCc2cc3c(cc21)CC1(C3)Cc2cc3c(cc2C1)C(=O)CCC3` the EC50 (BJ [3]) was 3.95 µM (inconclusive), the EC50 (BJ [4]) was 33 µM (active) and the EC50 [5] was 15.6 µM (active). The EC50 (BJ [6]) was 9.1 µM (active).
In the case of `CCCOc1ccc(C(CC(=O)O)NC(=O)CC(c2ccccc2)c2ccccc2)cc1` (configuration not stated), the IC50 [13] is reported as 12 µM (active).

— ChEMBL document CHEMBL1201862, “PubChem BioAssay data set” (2004)
